Peptide text beside a SMILES is read from it. * marks the point of attachment. Cbz = O=C(OCc1ccccc1)*; CH2F = FC*
Assays:
mouse ES cells [1] = experiment: Immunostaining of pluripotent stem cell markers (Sox2, Nanog, Oct4), ES cells; type: cell-based; conditions: ES cells, BRQ 10 μM
Procedure: (§1) The cells were fixed and immunostained as described in Kondo et al., Genes Dev. […] For the culture of ES cells and iPS cells, gelatin-coated ones were used.
(§2) For immunostaining, the cells were first washed once with PBS, then fixed by adding 4% paraformaldehyde and incubating for 10 minutes at room temperature. The cells were replaced with PBS containing 0.3% Triton X100 and incubated for 5 minutes at room temperature, then replaced with PBS containing 0.3% Triton X100 and 10% FCS (blocking solution) and incubated for 30 minutes at room temperature. The solution was replaced with primary antibody solution diluted in blocking solution and incubated for 2 hours at room temperature. After washing three times with PBS, secondary antibody and DAPI solution diluted with blocking solution were added and incubated at room temperature for 2 hours. […] Note that the cell nuclei were visualized by contrast staining with DAPI solution (1 μg/mL, manufactured by Dojindo, product code: D523). In addition, fluorescence images were acquired with an Axiolmager M1 microscope (manufactured by Carl Zeiss).
(§3) LMB is a specific inhibitor of CRM1, also known as Exportin 1.

mouse iPS cells [2] = experiment: Immunostaining of pluripotent stem cell markers (Sox2, Nanog, Oct4), iPS cells; type: cell-based; conditions: iPS cells, BRQ 10 μM
Procedure: as §1, §2, §3

mouse ES cells [3] = experiment: Nucleoside neutralization experiment (MTT), ES cells; conditions: 10 μM BRQ, 3 days, added up to 500 μM
Text: (§4) Pyrimidine synthesis is regulated by the de novo (de novo synthesis) pathway and salvage pathway. DHODH is a key factor in de novo synthesis, catalyzing the fourth chemical reaction in the synthetic pathway. In view of this, the present inventor investigated whether the effect of eliminating pluripotent stem cells by DHODH inhibitors could be eliminated by adding nucleosides such as uridine, which is the starting material of the salvage pathway.
(§5) In addition, UMP, a product of the pyrimidine synthesis pathway, is converted to UDP and UTP. Furthermore, uridine diphosphate-N-acetylglucosamine (UDP-GlcNac) is also biosynthesized using UTP as a substrate. […] Therefore, the present inventor verified whether the cytotoxic activity of DHODH inhibitors on pluripotent stem cells could also be neutralized by the products from these UMPs.

mouse iPS cells [4] = experiment: Nucleoside neutralization experiment (MTT), iPS cells; conditions: 10 μM BRQ, 3 days, added up to 500 μM
Text: as §4, §5

CCC(=C/[C@H](C)C/C=C/C(C)=C/[C@@H](C)C(=O)[C@@H](C)[C@H](O)[C@@H](C)C/C(C)=C/C(=O)O)/C=C/[C@@H]1OC(=O)C=C[C@@H]1C [LMB, leptomycin B]
nuclear export of Nanog and Oct4 in cells treated with BRQ (mouse ES cells [1]; 2 days, LMB 0.15 nM): completely suppressed | nuclear export of Nanog and Oct4 in cells treated with BRQ (mouse iPS cells [2]; 2 days, LMB 0.15 nM): completely suppressed

CC(NC(=O)C(NC(=O)OCc1ccccc1)C(C)C)C(=O)NC(CC(=O)O)C(=O)CF (stereo not drawn) [Z-VAD] (Cbz-Val-Ala-Asp-CH2F; configuration not given here)
effect on BRQ-dependent cell death (mouse ES cells [1]; ZVAD 100 nM): slight delay | effect on BRQ-dependent cell death (mouse iPS cells [2]; ZVAD 100 nM): slight delay

uridine diphosphate-N-acetylglucosamine [UDP-GlcNac]
neutralizing activity against the cytotoxic activity of BRQ (mouse ES cells [3]): neutralized | neutralizing activity against the cytotoxic activity of BRQ (mouse iPS cells [4]): neutralized

From patent US20220364065A1, “COMPOSITION FOR REMOVING PLURIPOTENT STEM CELLS AND METHOD OF REMOVING PLURIPOTENT STEM CELLS” (NATIONAL UNIVERSITY CORPORATION HOKKAIDO UNIVERSITY, priority 2018, published 2022)
